Laboratory results reported in publication PMC4648982 (Chemistry Central Journal, 2015).
“Also recorded” adds a separate entry of the source. Structures can show the parent of a compound that is named as a salt. Where two headings read alike, the source gives them in different places.

Target: jack bean urease (Canavalia ensiformis, UniProt P07374)
Assay: biochemical
Conditions: for urease inhibitory activity in words: in vitro assay, authors' verbal grading
Method: Reaction mixture comprising of 25μL of enzyme (jack bean urease) (1 unit/well) solution and 55 μL of phosphate buffers (4 mM) containing 100 mM urea were incubated with 5 μL of test compounds dissolved in methanol (0.5 mM concentration) at 30 °C for 15 min in 96-well plates. Urease activity was determined by measuring ammonia production using the indophenol method as described by Weather burn. Briefly, 45 μl each phenol reagent (1 % w/v phenol and 0.005 % w/v sodium nitroprussside) and 70 μL of alkali reagent(0.5 % w/v NaOH and 0.1 % active chloride NaOCl) were added to each well. The increasing absorbance at 630 nm was measured afther 50 min, using a microplate reader (Molecular Device, USA). All reactions were performed in triplicate in a final volume of 200 μL. The results (change in absorbance per min) were processed by using softMax Pro software (molecular Device, USA). The entire assays were performed at pH 6.8. Percentage inhibitions were calculated from the formula 100 − (ODtestwell/ODcontrol) × 100. Thiourea was used as the standard inhibitor of urease.

Sequence of jack bean urease (P07374 whole entry, looked up): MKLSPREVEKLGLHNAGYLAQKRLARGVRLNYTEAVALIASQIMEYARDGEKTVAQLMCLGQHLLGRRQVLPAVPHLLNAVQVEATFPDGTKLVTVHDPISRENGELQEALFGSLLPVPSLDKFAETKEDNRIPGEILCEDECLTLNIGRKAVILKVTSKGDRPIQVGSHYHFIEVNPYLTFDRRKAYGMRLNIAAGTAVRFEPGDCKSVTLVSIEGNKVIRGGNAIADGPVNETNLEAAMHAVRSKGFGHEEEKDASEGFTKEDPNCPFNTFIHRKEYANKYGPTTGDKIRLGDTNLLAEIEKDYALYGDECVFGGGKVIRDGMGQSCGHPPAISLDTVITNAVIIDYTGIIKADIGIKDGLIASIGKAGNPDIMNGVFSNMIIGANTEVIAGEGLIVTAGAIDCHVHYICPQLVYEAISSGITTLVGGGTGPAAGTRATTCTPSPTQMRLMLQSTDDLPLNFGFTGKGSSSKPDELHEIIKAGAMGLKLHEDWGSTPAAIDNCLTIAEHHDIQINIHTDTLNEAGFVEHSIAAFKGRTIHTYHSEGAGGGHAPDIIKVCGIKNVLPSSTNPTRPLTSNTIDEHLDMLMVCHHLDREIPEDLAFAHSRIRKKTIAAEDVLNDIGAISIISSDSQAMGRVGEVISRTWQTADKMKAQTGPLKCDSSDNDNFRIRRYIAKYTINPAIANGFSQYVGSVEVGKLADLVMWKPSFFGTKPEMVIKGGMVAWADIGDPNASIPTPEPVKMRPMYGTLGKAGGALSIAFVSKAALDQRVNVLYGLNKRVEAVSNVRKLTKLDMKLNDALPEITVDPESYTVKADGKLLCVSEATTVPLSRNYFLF

Question: `CC1(C)CC(=O)C(C(C2=C(O)CC(C)(C)CC2=O)c2ccc(C=O)cc2)=C(O)C1` [Compound 5j, 2-((4-Formylphenyl)(2-hydroxy-4,4-dimethyl-6-oxocyclohex-1-en-1-yl)methyl)-5,5-dimethyl-3-oxocyclohex-1-enolate diethylaminium salt] was tested. Which IC50 did it give?
Answer: 72.6 ± 0.59 µM

Question: For `CC1(C)CC(=O)C(C(C2=C(O)CC(C)(C)CC2=O)c2c(Cl)cccc2Cl)=C(O)C1` [Compound 5g, 2-((2,6-Dichlorophenyl)(2-hydroxy-4,4-dimethyl-6-oxocyclohex-1-en-1-yl)methyl)-5,5-dimethyl-3-oxocyclohex-1-enolate diethylaminium salt], which IC50 is on record?
Answer: 170.7 ± 1.55 µM

Question: What about the “urease inhibitory activity in words” value of the same compound?
Answer: least active; also recorded: inactivity

Question: Which IC50 does the source give for `Cc1ccc(C(C2=C(O)CC(C)(C)CC2=O)c2c(O)[nH]c(=O)[nH]c2=O)cc1` (centres unmarked) [Compound 5p, 5-((2-Hydroxy-4,4-dimethyl-6-oxocyclohex-1-en-1-yl)(p-tolyl)methyl)-2,6-dioxo-1,2,3,6-tetrahydropyrimidin-4-olate diethylaminium salt] here?
Answer: 27.4 ± 0.54 µM

Question: `Cc1cccc(C(c2c(O)n(C)c(=O)n(C)c2=O)c2c(O)n(C)c(=O)n(C)c2=O)c1` [Compound 4b, 5,5′-(3-Tolylmethylene)bis(1,3-dimethylpyrimidine-2,4,6(1H,3H,5H)-trione) diethylaminium salt] was tested. Which IC50 did it give?
Answer: 34.4 ± 1.57 µM

Question: For `CC1(C)CC(=O)C(C(c2ccc(Cl)cc2)c2c(O)[nH]c(=O)[nH]c2=O)=C(O)C1` (centres unmarked) [Compound 5m, 5-((4-Chlorophenyl)(2-hydroxy-4,4-dimethyl-6-oxocyclohex-1-en-1-yl)methyl)-2,6-dioxo-1,2,3,6-tetrahydropyrimidin-4-olate diethylaminium salt], which IC50 is on record?
Answer: 65.9 ± 0.61 µM

Question: Which IC50 does the source give for `Cn1c(O)c(C(C2=C(O)CC(C)(C)CC2=O)c2ccccc2)c(=O)n(C)c1=O` (centres unmarked) [Compound 4m, 5-((2-Hydroxy-4,4-dimethyl-6-oxocyclohex-1-en-1-yl)(phenyl)methyl)-1,3-dimethyl-2,6-dioxo-1,2,3,6-tetrahydropyrimidin-4-olate diethylaminium salt] here?
Answer: 39.3 ± 0.79 µM

Question: Which results are given for `CC1(C)CC(=O)C(C(C2=C(O)CC(C)(C)CC2=O)c2ccc3ccccc3c2)=C(O)C1` [Compound 5s, 2-((2-Hydroxy-4,4-dimethyl-6-oxocyclohex-1-en-1-yl)(naphthalen-2-yl)methyl)-5,5-dimethyl-3-oxocyclohex-1-enolate diethylaminium salt]?
Answer: IC50: 123.2 ± 0.37 µM; urease inhibitory activity in words: inactivity

Question: Which results are given for `Cc1ccc(C(c2c(O)[nH]c(=O)[nH]c2=O)c2c(O)[nH]c(=O)[nH]c2=O)cc1` [Compound 4i, 5,5′-(p-Tolylmethylene)bis(6-hydroxypyrimidine-2,4(1H,3H)-dione) diethylaminium salt]?
Answer: IC50: 17.6 ± 0.23 µM; urease inhibitory activity in words: most active

Question: `Cn1c(O)c(C(c2ccc(C=O)cc2)c2c(O)n(C)c(=O)n(C)c2=O)c(=O)n(C)c1=O` [Compound 4a, 4-(bis(6-Hydroxy-1,3-dimethyl-2,4-dioxo-1,2,3,4-tetrahydropyrimidin-5-yl)methyl)benzaldehyde diethylaminium salt] was tested. Which IC50 did it give?
Answer: 39.3 ± 0.36 µM

Question: For `Cn1c(O)c(C(c2cccc(Br)c2)c2c(O)n(C)c(=O)n(C)c2=O)c(=O)n(C)c1=O` [Compound 4e, 5,5′-((3-Bromophenyl)methylene)bis(1,3-dimethylpyrimidine-2,4,6(1H,3H,5H)-trione) diethylaminium salt], which IC50 is on record?
Answer: 27.5 ± 0.12 µM

Question: `Cn1c(O)c(C(C2=C(O)CC(C)(C)CC2=O)c2ccccc2[N+](=O)[O-])c(=O)n(C)c1=O` (centres unmarked) [Compound 4s, 5-((2-Hydroxy-4,4-dimethyl-6-oxocyclohex-1-en-1-yl)(1-nitrophenyl)methyl)-1,3-dimethyl-2,6-dioxo-1,2,3,6-tetrahydropyrimidin-4-olate diethylaminium salt] was tested. Which IC50 did it give?
Answer: 110 ± 1.1 µM

Question: What about the “urease inhibitory activity in words” value of the same compound?
Answer: inactivity

Question: With `CC1(C)CC(=O)C(C(c2ccc(Br)cc2)c2c(O)[nH]c(=O)[nH]c2=O)=C(O)C1` (centres unmarked) [Compound 5o, 5-((4-Bromophenyl)(2-hydroxy-4,4-dimethyl-6-oxocyclohex-1-en-1-yl)methyl)-2,6-dioxo-1,2,3,6-tetrahydropyrimidin-4-olate diethylaminium salt] as the compound, how does the IC50 read?
Answer: 34.6 ± 0.79 µM

Question: Which results are given for `CC1(C)CC(=O)C(C(C2=C(O)CC(C)(C)CC2=O)c2cccc([N+](=O)[O-])c2)=C(O)C1` [Compound 5h, 2-((2-Hydroxy-4,4-dimethyl-6-oxocyclohex-1-en-1-yl)(3-nitrophenyl)methyl)-5,5-dimethyl-3-oxocyclohex-1-enolate diethylaminium salt]?
Answer: IC50: 49 ± 0.55 µM; urease inhibitory activity in words: good urease inhibitory activity

Question: Which IC50 does the source give for `Cn1c(O)c(C(C2=C(O)CC(C)(C)CC2=O)c2ccc(Cl)cc2)c(=O)n(C)c1=O` (centres unmarked) [Compound 4p, 5-((4-Chlorophenyl)(2-hydroxy-4,4-dimethyl-6-oxocyclohex-1-en-1-yl)methyl)-1,3-dimethyl-2,6-dioxo-1,2,3,6-tetrahydropyrimidin-4-olate diethylaminium salt] here?
Answer: 39.7 ± 0.7 µM

Question: How did the IC50 turn out when `O=c1[nH]c(O)c(C(c2ccc(Cl)cc2)c2c(O)[nH]c(=O)[nH]c2=O)c(=O)[nH]1` [Compound 4j, 5,5′-((4-Chlorophenyl)methylene)bis(6-hydroxypyrimidine-2,4(1H,3H)-dione) diethylaminium salt] was run?
Answer: 22.3 ± 0.73 µM

Question: And the “urease inhibitory activity in words” value?
Answer: active

Question: How did the IC50 turn out when `CC1(C)CC(=O)C(C(C2=C(O)CC(C)(C)CC2=O)c2ccccc2[N+](=O)[O-])=C(O)C1` [Compound 5i, 2-((2-Hydroxy-4,4-dimethyl-6-oxocyclohex-1-en-1-yl)(2-nitrophenyl)methyl)-5,5-dimethyl-3-oxocyclohex-1-enolate diethylaminium salt] was run?
Answer: 210.1 ± 0.29 µM

Question: And the “urease inhibitory activity in words” value?
Answer: inactivity

Question: `O=c1[nH]c(O)c(C(c2ccc3ccccc3c2)c2c(O)[nH]c(=O)[nH]c2=O)c(=O)[nH]1` [Compound 4l, 5,5′-(Naphthalen-2-ylmethylene)bis(6-hydroxypyrimidine-2,4(1H,3H)-dione) diethylaminium salt] was tested. Which IC50 did it give?
Answer: 22.7 ± 0.2 µM

Question: How did the IC50 turn out when `COc1ccc(C(C2=C(O)CC(C)(C)CC2=O)c2c(O)n(C)c(=O)n(C)c2=O)cc1` (centres unmarked) [Compound 4o, 5-((2-Hydroxy-4,4-dimethyl-6-oxocyclohex-1-en-1-yl)(4-methoxyphenyl)methyl)-1,3-dimethyl-2,6-dioxo-1,2,3,6-tetrahydropyrimidin-4-olate diethylaminium salt] was run?
Answer: 83 ± 0.66 µM

Question: `CN(C)c1ccc(C(C2=C(O)CC(C)(C)CC2=O)c2c(O)n(C)c(=O)n(C)c2=O)cc1` (centres unmarked) [Compound 4t, 5-((2-Hydroxy-4,4-dimethyl-6-oxocyclohex-1-en-1-yl)(4-(dimethylamino)phenyl)methyl)-1,3-dimethyl-2,6-dioxo-1,2,3,6-tetrahydropyrimidin-4-olate diethylaminium salt] was tested. Which IC50 did it give?
Answer: 142.1 ± 0.64 µM

Question: And the “urease inhibitory activity in words” value?
Answer: least active; also recorded: inactivity

Question: `CC1(C)CC(=O)C(C(c2ccc(C=O)cc2)c2c(O)[nH]c(=O)[nH]c2=O)=C(O)C1` (centres unmarked) [Compound 5q, 2-((4-Formylphenyl)(6-hydroxy-2,4-dioxo-1,2,3,4-tetrahydropyrimidin-5-yl)methyl)-5,5-dimethyl-3-oxocyclohex-1-enolate diethylaminium salt] was tested. Which IC50 did it give?
Answer: 41.6 ± 0.41 µM

Question: With `Cn1c(O)c(C(C2=C(O)CC(C)(C)CC2=O)c2ccc(Br)cc2)c(=O)n(C)c1=O` (centres unmarked) [Compound 4q, 5-((4-Bromophenyl)(2-hydroxy-4,4-dimethyl-6-oxocyclohex-1-en-1-yl)methyl)-1,3-dimethyl-2,6-dioxo-1,2,3,6-tetrahydropyrimidin-4-olate diethylaminium salt] as the compound, how does the IC50 read?
Answer: 24.6 ± 0.42 µM

Question: With `Cn1c(O)c(C(c2ccc(O)cc2)c2c(O)n(C)c(=O)n(C)c2=O)c(=O)n(C)c1=O` [Compound 4f, 5,5′-((4-hydroxyphenyl)methylene)bis(6-hydroxy-1,3-dimethylpyrimidine-2,4(1H,3H)-dione) diethylaminium salt] as the compound, how does the IC50 read?
Answer: 54.2 ± 0.83 µM

Question: Which IC50 (jack bean urease, indophenol method, pH 6.8, 30 °C, 15 min incubation, triplicate, read-out: Urease inhibition IC50 ± SEM) does the source give for “2-((2-Hydroxy-4,4-dimethyl-6-oxocyclohex-1-en-1-yl)(m-tolyl)methyl)-5,5-dimethyl-3-oxocyclohex-1-enolate diethylaminium salt [Compound 5d]” here?
Answer: 51.3 ± 0.45 µM

Question: For `Cn1c(O)c(C(C2=C(O)CC(C)(C)CC2=O)c2c(Cl)cccc2Cl)c(=O)n(C)c1=O` (centres unmarked) [Compound 4y, 5-((2,6-Dichlorophenyl)(2-hydroxy-4,4-dimethyl-6-oxocyclohex-1-en-1-yl)methyl)-1,3-dimethyl-2,6-dioxo-1,2,3,6-tetrahydropyrimidin-4-olate diethylaminium salt], which IC50 is on record?
Answer: 83.4 ± 1 µM

Question: With `Cn1c(O)c(C(C2=C(O)CC(C)(C)CC2=O)c2ccc3ccccc3c2)c(=O)n(C)c1=O` (centres unmarked) [Compound 4z, 5-((2-Hydroxy-4,4-dimethyl-6-oxocyclohex-1-en-1-yl)(naphthalen-2-yl)methyl)-1,3-dimethyl-2,6-dioxo-1,2,3,6-tetrahydropyrimidin-4-olate diethylaminium salt] as the compound, how does the IC50 read?
Answer: 39.8 ± 1.38 µM

Question: Which IC50 does the source give for `COc1ccc(C(c2c(O)n(C)c(=O)n(C)c2=O)c2c(O)n(C)c(=O)n(C)c2=O)cc1` [Compound 4d, 5,5′-((4-Methoxyphenyl)methylene)bis(1,3-dimethylpyrimidine-2,4,6(1H,3H,5H)-trione) diethylaminium salt] here?
Answer: 31.6 ± 0.79 µM

Question: Which IC50 does the source give for `CC1(C)CC(=O)C(C(C2=C(O)CC(C)(C)CC2=O)c2ccccc2)=C(O)C1` [Compound 5a, 2-((2-Hydroxy-4,4-dimethyl-6-oxocyclohex-1-en-1-yl)(phenyl)methyl)-5,5-dimethyl-3-oxocyclohex-1-enolate diethylaminium salt] here?
Answer: 74.5 ± 0.88 µM
